This passage reports EC50 results from patent US10421743B2, “Tetrahydroisoquinolines as PRMT5 inhibitors” (CTXT PTY LTD, priority 2016, dated 2019).

Assay [1] concerns the target Full-length (FL)-PRMT5-MEP50 enzyme complex (Homo sapiens (Human), UniProt O14744). Briefly: PRMT5-MEP50 Enzyme Methylation Assay (SAMDI). The class given is biochemical. The following applies: 0.5 nM PRMT5-MEP50, 75 nM biotinylated H4R3(Me1) peptide, 15 μM SAM, 150 minutes at 37° C. As to the method: PRMT5-MEP50 Enzyme Methylation Assay
PRMT5/MEP50 biochemical assay is a direct measurement of the methylation activity of the enzyme complex on a short peptide substrate derived from the N-terminus of H4 histone. Methylation experiment is performed with recombinant protein. The assessment of inhibitory effect (IC50) of small molecules is measured by the effectiveness of the compounds to inhibit this reaction.
In this assay, the potency (IC50) of each compound was determined from a twenty-point (1:2 serial dilution; top compound concentration of 100000 nM) titration curve using the following outlined procedure. To each well of a white ProxiPlus 384 well-plate, 100 nL of compound (1% DMSO in final assay volume of 10 μL) was dispensed, followed by the addition of 8 μL of 1× assay buffer (50 mM Bicine pH 8.0, 1 mM DTT, 0.004% Tween20, 0.01% BSA) containing 0.5 nM of Full-length (FL)-PRMT5-MEP50 enzyme complex (recombinant proteins from baculovirus-transfected Sf21 cells: FL-PRMT5; MW=[…] and FL-MEP50; MW=38614). Plates were sealed and placed in a 37° C. humidified chamber for 30 minutes pre-incubation with compounds. Subsequently, each reaction was initiated by the addition of 2 μL 1× assay buffer containing 75 nM biotinylated H4R3(Me1) peptide, and 15 μM S-(5′-Adenosyl)-L-Methionine Chloride (SAM). The final reaction in each well of 10 μL consists of 0.5 nM PRMT5-MEP50,75 nM biotinylated-peptide, and 15 μM SAM. Methylation reactions were allowed to proceed for 150 minutes in a sealed plate at 37° C. Reactions were immediately quenched by the addition of 1 μL of 10% formic acid. Plates were then frozen and shipped to SAMDI™ Tech Inc. to determine the percent conversion from […]. IC50 values were determined by 7 parameters biphasic fit model plotting the percent product conversion vs. (Log10) compound concentrations.

The subject of assay [2] is PRMT5 (symmetric dimethylation of arginine (SDMA) in MCF-7 cells). Briefly: PRMT5 Cell Target Engagement (TE) Assay (SDMA, high content imaging). The class given is cell-based. The following applies: Homo sapiens, MCF7, 72 h, treated for 3 days, top compound concentration of 10000 nM. An excerpt: PRMT5 Cell Target Engagement (TE) Assay
The PRMT5 TE assay is a biomarker assay for identifying compounds that inhibit symmetric dimethylation of arginine (SDMA) of PRMT5 substrates. This assay detects symmetrically dimethylated nuclear proteins using high content imaging technology. Detection of the expression of symmetrically dimethylated nucleo proteins is through a mixture of primary rabbit monoclonal antibodies to SDMA (CST 13222), which in turn recognized by an Alexafluor 488 dye-conjugated anti-rabbit IgG secondary antibody. The IN Cell Analyzer 2200 measures nuclear Alexafluor 488 fluorescent dye intensity that is directly related to the level of expression of symmetrically dimethylated nuclear proteins at the single cell level. Nuclear AF488 dye intensities are compared to the mean value for DMSO treated cells […] to report percent of inhibition for each compound-treated well.
In this assay, the cell potency (EC50) of each compound was determined from a ten point (1:3 serial dilution; top compound concentration of 10000 nM) titration curve using the following outlined procedure. Each well of a BD falcon collagen coated black/clear bottom 384-well plate was seeded with 4000 MCF-7 cells and allowed to attach for 5 hours. Media from cell plate was removed at 0.5 mm above the bottom of the plate and replaced with 30 μL of fresh media containing 1.2× compounds in 0.1% DMSO. Cells were treated for 3 days in 37° C. CO2 incubator. On day 3, cells were fixed with Cytofix, permeabilized with 0.4% Triton-X-100/Cytofix, and washed with D-PBS without Ca/Mg. Cells were blocked with Licor Odessey blocking reagent for one hour at room temperature, followed by incubation with anti-SDMA (1:1000) antibody at 4° C. overnight. 1° antibody was removed, followed by three washings with DPBS without Ca/Mg and 0.05% Tween20. Hoechst (5 μg/ml), Cell Mask deep stain (1:2000) and Alexa488-conjugated goat anti-rabbit IgG (2 μg/mL) was added for 1 hour at room temperature. A final washing step (three washes) was performed before sealing plate for imaging on In Cell Analyzer 2200. Images from analyzer were uploaded to Columbus (at WP) for image analysis. IC50 values were determined by 4 parameters robust fit of percent fluorescence units vs. (Log10) compound concentrations.

Setting [3] is: first EC50 of biphasic fit, read-out: Enzyme Methylation Assay (EC50—1).
Where [4] appears, read: second EC50 of biphasic fit, read-out: Enzyme Methylation Assay (EC50—2).

pEC50: −log10 of the molar value. Read-outs that look alike come from different tables or passages of the source.

Sequence of Full-length (FL)-PRMT5-MEP50 enzyme complex (O14744 whole entry): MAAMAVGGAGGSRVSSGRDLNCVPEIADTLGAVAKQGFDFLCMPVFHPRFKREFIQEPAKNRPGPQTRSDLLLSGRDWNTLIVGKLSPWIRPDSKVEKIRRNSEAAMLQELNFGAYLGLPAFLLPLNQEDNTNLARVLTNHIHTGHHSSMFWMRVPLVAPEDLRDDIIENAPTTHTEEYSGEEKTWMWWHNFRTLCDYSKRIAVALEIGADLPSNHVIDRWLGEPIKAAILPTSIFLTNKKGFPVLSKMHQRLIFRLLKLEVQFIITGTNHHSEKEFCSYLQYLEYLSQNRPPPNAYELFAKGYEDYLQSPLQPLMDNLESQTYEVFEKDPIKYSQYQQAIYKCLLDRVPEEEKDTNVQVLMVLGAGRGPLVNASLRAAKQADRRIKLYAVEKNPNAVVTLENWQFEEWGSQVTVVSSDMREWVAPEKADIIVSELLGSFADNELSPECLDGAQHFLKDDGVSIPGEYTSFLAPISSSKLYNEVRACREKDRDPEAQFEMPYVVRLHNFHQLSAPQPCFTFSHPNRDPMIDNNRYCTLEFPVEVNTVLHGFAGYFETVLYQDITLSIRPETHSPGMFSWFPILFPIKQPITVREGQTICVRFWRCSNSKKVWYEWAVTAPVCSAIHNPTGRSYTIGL
Sequence of Full-length (FL)-PRMT5-MEP50 enzyme complex (Q9BQA1 whole entry partner): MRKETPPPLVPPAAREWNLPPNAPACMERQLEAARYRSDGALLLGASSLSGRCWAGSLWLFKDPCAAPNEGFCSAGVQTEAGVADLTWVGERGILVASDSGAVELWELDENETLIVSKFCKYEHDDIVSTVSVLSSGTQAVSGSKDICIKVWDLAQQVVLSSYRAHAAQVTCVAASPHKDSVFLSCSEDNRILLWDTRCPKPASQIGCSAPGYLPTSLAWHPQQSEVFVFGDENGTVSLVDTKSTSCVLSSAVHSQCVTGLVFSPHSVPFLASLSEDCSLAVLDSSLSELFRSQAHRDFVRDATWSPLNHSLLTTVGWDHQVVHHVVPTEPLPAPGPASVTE

On to `COc1ccc2c(c1)CN[C@H]([C@H](O)CNC(=O)c1cc(NC3COC3)ncn1)C2` [Example 4, N—((R)-2-hydroxy-2-((S)-7-methoxy-1,2,3,4-tetrahydroisoquinolin-3-yl)ethyl)-6-(oxetan-3-ylamino)pyrimidine-4-carboxamide], for which the negative-log EC50 (pEC50) is 7.68 in assay [1] (setting [3]) and 5.07 in assay [1] (setting [4]).
In the case of `CCOc1cc(-c2nnc(C)o2)ccc1C(=O)NC[C@@H](O)[C@@H]1Cc2ccc(OC)cc2CN1` [Example 5, 2-ethoxy-N-{(2R)-2-hydroxy-2-[(3S)-7-methoxy-1,2,3,4-tetrahydroisoquinolin-3-yl]ethyl}-4-(5-methyl-1,3,4-oxadiazol-2-yl)benzamide], the results for the pEC50 in assay [1] (setting [3]), in assay [1] (setting [4]) and in assay [2] were 8.70, 6.05 and 5.67, respectively.
Regarding `CCOc1cc(-c2nnc(C3CC3)o2)ccc1C(=O)NC[C@@H](O)[C@@H]1Cc2ccc(OC)cc2CN1` [Example 6, 4-(5-cyclopropyl-1,3,4-oxadiazol-2-yl)-2-ethoxy-N-{(2R)-2-hydroxy-2-[(3S)-7-methoxy-1,2,3,4-tetrahydroisoquinolin-3-yl]ethyl}benzamide], the results for the pEC50 in assay [1] (setting [3]), in assay [1] (setting [4]) and in assay [2] were 8.70, 6.11 and 6.69, respectively.
In the case of `COc1ccc2c(c1)CN[C@H]([C@H](O)CNC(=O)c1ccc(-c3nnc(C(C)(C)C)o3)cc1)C2` [Example 7], the pEC50 was 8.52 in assay [1] (setting [3]), 6.00 in assay [1] (setting [4]) and 6.78 in assay [2].
For `COc1ccc2c(c1)CN[C@H]([C@H](O)CNC(=O)c1ccc(-c3ncc4n3CCCC4)cc1)C2` [Example 8], the pEC50 in assay [1] (setting [3]) is 9.21; in assay [1] (setting [4]), 6.65; in assay [2], 7.10.
In the same order, the values of `COc1ccc2c(c1)CN[C@H]([C@H](O)CNC(=O)c1ccc(-c3ncnn3C3CC3)cc1)C2` [Example 9] are 9.25, 6.48 and 7.15.
Consider `O=C(NC[C@@H](O)[C@@H]1Cc2ccc(C(F)F)cc2CN1)c1ccc(C(=O)N2C3CCC2COC3)cc1` [Example 11], for which a half-maximal response in assay [1] (Enzyme Methylation Assay (EC50—1, nM), first EC50 of biphasic fit) (EC50) required 0.93 nM. The negative-log EC50 (pEC50) in assay [1] (setting [4]) was 6.35; in assay [2], 6.87.
In the case of `COc1ccc2c(c1)CN[C@H]([C@H](O)CNC(=O)c1cccnc1)C2` [Example 12], the results for the pEC50 in assay [1] (setting [3]), in assay [1] (setting [4]) and in assay [2] were 7.49, 4.94 and 5.33, respectively.
As to `CCOc1ncccc1C(=O)NC[C@@H](O)[C@@H]1Cc2ccc(OC)cc2CN1` [Example 13], the pEC50 in assay [1] (setting [3]) was 7.68; in assay [1] (setting [4]) it was 5.09; in assay [2] it was 5.33.
In the same order, the values of `COc1ccc2c(c1)CN[C@H]([C@H](O)CNC(=O)c1ccccc1Cl)C2` [Example 14] are 7.92, 5.37 and 5.49.
As for `CC(=O)N1CCC(Nc2cc(C(=O)NC[C@@H](O)[C@@H]3Cc4ccc(C(F)(F)F)cc4CN3)ncn2)CC1` [Example 15], the pEC50 in assay [1] (setting [3]) was 7.64; in assay [1] (setting [4]), 5.14; in assay [2], 5.66.
As to `CCc1ccc2c(c1)CN[C@H]([C@H](O)CNC(=O)c1cc(NC3CCN(C(C)=O)CC3)ncn1)C2` [Example 16], the results for the pEC50 in assay [1] (setting [3]), in assay [1] (setting [4]) and in assay [2] were 8.15, 5.43 and 6.07, respectively.
Turning to `CC(=O)N1CCC(Nc2cc(C(=O)NC[C@@H](O)[C@@H]3Cc4ccc(C#N)cc4CN3)ncn2)CC1` [Example 17], the pEC50 in assay [1] (setting [3]) was 6.74; in assay [1] (setting [4]), 4.46; in assay [2] it was 5.00.
On to `COC(=O)N1CCC(Nc2cc(C(=O)NC[C@@H](O)[C@@H]3Cc4ccc(OC)cc4CN3)ccn2)CC1` [Example 18], for which the values for the pEC50 in assay [1] (setting [3]), in assay [1] (setting [4]) and in assay [2] were 9.10, 6.73 and 7.72, respectively.

Usually pEC50 stands for the negative decadic logarithm of the EC50, by convention in mol/L. In general, EC50 refers to the concentration needed to bring the measured effect to its halfway point. Low values mean an effect from little substance, high ones a need for much substance.
